Each structure is given as a SMILES string.

This note sets out measurements from patent publication US20240423948A1, “5-HYDROXYMETHYLFURFURAL FOR THE TREATMENT OF MITOCHONDRIAL DYSFUNCTION” (D-CAP LLC, priority 2021, published 2024).

Common to all, as to type: cell-based, murine
For series [1], the system named is Hepa1-6 cell line. Kind of series: Mitochondrial reactive oxygen species (MitoSOX Red). Conditions: for MitoSOX levels: 24 h. The procedure: Cell culture: The Hepa1-6 cell line (#CRL-1830, ATCC) was cultured in DMEM culture medium containing 1 g/L glucose, 10% fetal bovine serum, 2 mM glutamine, 100 U/mL Penicillin and 100 μg/mL Streptomycin and 30 μM oleic acid. Cells were seeded at a density of 20 000 cells per well in 96 well plates and incubated for overnight to allow the cells to attach at 37° C. with 5% CO2. Cells were then supplemented with the test substances at indicated concentrations and incubated for indicated time periods (24 h). For all assays the test substances were diluted in 10% DMSO/PBS further diluted with culture medium and added to the cells at the indicated concentrations with a final DMSO concentration of 0.01%. Vehicle controls were treated with 0.01% DMSO. Mitochondrial reactive oxygen species (ROS); Cells were treated for 24 h with the test substances at the indicated concentration, as well as positive (10 μM FCCP and 1 μM oligomycin) and negative control. Mitochondrial ROS was detected using MitoSOX™ Red mitochondrial superoxide indicator (#M36008, Invitrogen/Thermo Fisher Scientific). After 24 h treatment of the substances, cells were washed with 100 μl assay buffer (DMEM without phenol red with 4 mM L-glutamine, 4.5 g/L glucose and 1 mM Na-Pyruvate, pH7.4) three times, and 100 μl of […] MitoSOX Red (5 mM MitoSOX™ Red stock solution prepared as indicated by the manufacturer's instruction diluted in 1:2 500 in assay buffer) was added per well, followed by incubation for 30min at 37° C. with 5% CO2. After the incubation cells were washed with 100 μl assay buffer and 100 μl assay buffer was added per well. Fluorescence was measured at excitation 510 nm and emission 580 nm. Use flat, black bottom plates were used.

The subject of series [2] is Hepa1-6 cell line. Kind of series: ATP content (CellTiter-Glo Assay). Conditions: for ATP levels: single agent, 24 h, lower (0.1-100 μM) and higher dose range, FIG. 1A and 1D. The procedure:
Cell culture: The Hepa1-6 cell line (#CRL-1830, ATCC) was cultured in DMEM culture medium containing 1 g/L glucose, 10% fetal bovine serum, 2 mM glutamine, 100 U/mL Penicillin and 100 μg/mL Streptomycin and 30 μM oleic acid. Cells were seeded at a density of 20 000 cells per well in 96 well plates and incubated for overnight to allow the cells to attach at 37° C. with 5% CO2. Cells were then supplemented with the test substances at indicated concentrations and incubated for indicated time periods (24 h). For all assays the test substances were diluted in 10% DMSO/PBS further diluted with culture medium and added to the cells at the indicated concentrations with a final DMSO concentration of 0.01%. Vehicle controls were treated with 0.01% DMSO. ATP content: Cells were treated for 24 h with the test substances at the indicated concentrations. The cellular ATP content was assessed using the CellTiter-Glo Assay (#G7571, Promega) as per the manufacturer's instructions. Luminescence was detected in a plate reader spectrophotometer. The results were normalized to the luminescence intensity measured in vehicle treated cells and positive controls treated with 0.1% Triton-X, as well as 10 μM FCCP and 1 μM oligomycin. Flat, white bottom plate.
A general note: ATP-based viability assays read luminescence as a measure of living cells.

In series [3] the test system is Hepa1-6 cell line. Kind of series: Cytotoxicity (CyQuant LDH Cytotoxicity Assay). The following applies: single agent, 24 h, lower and higher dose range, FIG. 1C and 1F. The procedure: Cells were seeded at a density of 20 000 cells per well in 96 well plates and incubated for overnight to allow the cells to attach at 37° C. with 5% CO2. Cells were then supplemented with the test substances at indicated concentrations and incubated for indicated time periods (24 h). For all assays the test substances were diluted in 10% DMSO/PBS further diluted with culture medium and added to the cells at the indicated concentrations with a final DMSO concentration of 0.01%. Vehicle controls were treated with 0.01% DMSO. Cytotoxicity: Cytotoxicity was assessed using the CyQuant™ LDH Cytotoxicity Assay Kit (#C20300/C20301, Thermo Fisher). After cells were cultured with the test substances for 24 h, 50 μL of the cell culture medium were transferred to a new 96 well plate and the cytotoxicity assay was performed as per the manufacturer's instructions. Absorbance was measured at 490 nm and background at 680 nm. The signal intensity of untreated cells was considered as the background signal of spontaneous LDH release and subtracted from all measurements. Cytotoxicity was expressed as the percentage of maximum signal intensity observed in freshly lysed cells. Flat, clear plate. 10 μM FCCP, 1 μM oligomycin, 0.1% Triton X as positive control.

Where [4] appears, read: single agent, lower and higher dose range, FIG. 1B and 1E.

In the case of `CN(C)C(=N)N=C(N)N` [Metformin, reference compound], the MitoSOX levels result in series [1] (setting [4]) is on record as “trend of slight increase of MitoSOX levels”. In addition, the ATP levels entry in series [2] is reported as “ATP reduction”. Besides, the “cytotoxicity (LDH)” value in series [3] is “without cytotoxic effects”.

Regarding `O=Cc1ccc(CO)o1` [5-HMF, 5-Hydroxymethylfurfural], in series [1] (FIG. 1 legend, overall), the “effect on mitochondrial function (mitochondrial ROS levels) compared with metformin” value is given as “comparable to that of metformin”. The “effect on mitochondrial function (MitoSOX) compared with Metformin” value in series [1] (lower dose range (physiological doses of Metformin), FIG. 1B) is reported as “milder than that of Metformin”. Besides, the MitoSOX levels entry in series [1] (setting [4]) was “trend of slight increase of MitoSOX levels”. Further, the “effect on mitochondrial function (ATP levels) compared with metformin” value in series [2] (FIG. 1 legend, overall) is recorded as “comparable to that of metformin”; in series [2] (lower dose range (physiological doses of Metformin), FIG. 1A), “milder than that of Metformin”. The ATP levels result in series [2] is listed as “ATP reduction”. For the same compound, the “cytotoxicity (LDH)” value in series [3] was “without cytotoxic effects”.

For `CC[C@H]1/C=C/C=C/C[C@@H](C)[C@H](O)[C@@](C)(O)C(=O)[C@@H](C)[C@H](O)[C@@H](C)C(=O)[C@@H](C)[C@H](O)[C@@H](C)/C=C/C(=O)O[C@@H]2[C@H](C)[C@H](CC1)O[C@]1(CC[C@H](C)[C@H](C[C@@H](C)O)O1)[C@H]2C` [oligomycin, reference compound], the MitoSOX levels result in series [1] (positive control, 1 μM oligomycin) is given as “no statistically significance”.
